Data from ChEMBL document CHEMBL3046609, “Herbicidal properties of the thaxtomin group of phytotoxins” (2001).
Calls of active or inactive are those of the source. The rule behind the calls is not given here.

How the values were obtained:
[1] = test system: Echinochloa crus-galli; test: Pre-emergence herbicidal activity against Echinochloa crus-galli (barnyard grass) assessed as visual injury at 2 kg/ha after 16 days relative to control; assay type: functional
[2] = test system: Helianthus annuus; test: Herbicidal activity against Helianthus annuus (sunflower) assessed as visual injury at 10 ug/seedling applied to cotyledon after 1 week relative to control; assay type: functional
[3] = test system: Agrostis stolonifera var. palustris; test: Herbicidal activity against Agrostis stolonifera var. palustris assessed as visual injury at 5 ppm after 9 days relative to control; assay type: functional
[4] = test system: Lemna minor; test: Herbicidal activity against Lemna minor (common duckweed) assessed as visual injury at 0.2 ppm after 9 days relative to control; assay type: functional
[5] = test system: Agrostis stolonifera var. palustris; test: Herbicidal activity against Agrostis stolonifera var. palustris after 9 days; assay type: functional
[6] = test system: Ipomoea hederacea; test: Pre-emergence herbicidal activity against Ipomoea hederacea (ivy-leaved morning glory) assessed as visual injury at 4 kg/ha after 16 days relative to control; assay type: functional
[7] = test system: Lemna minor; test: Herbicidal activity against Lemna minor (common duckweed) assessed as visual injury at 5 ppm after 9 days relative to control; assay type: functional
[8] = test system: Abutilon theophrasti; test: Herbicidal activity against Abutilon theophrasti (velvetleaf) assessed as visual injury at 10 ug/seedling applied to leaf after 1 week relative to control; assay type: functional
[9] = test system: Ipomoea hederacea; test: Herbicidal activity against Ipomoea hederacea (ivy-leaved morning glory) assessed as visual injury at 10 ug/seedling applied to meristem after 1 week relative to control; assay type: functional
[10] = test system: Agrostis stolonifera var. palustris; test: Herbicidal activity against Agrostis stolonifera var. palustris assessed as visual injury at 0.008 ppm after 9 days relative to control; assay type: functional
[11] = test system: Avena fatua; test: Pre-emergence growth inhibition of Avena fatua assessed as visual injury at 0.5 kg/ha after 16 days relative to control; assay type: functional; design: scale not given: the % may be the effect or the level left
[12] = test system: Ipomoea hederacea; test: Post-emergence herbicidal activity against Ipomoea hederacea (ivy-leaved morning glory) assessed as visual injury at 2 kg/ha after 9 days relative to control; assay type: functional
[13] = test system: Helianthus annuus; test: Pre-emergence growth inhibition of Helianthus annuus (sunflower) assessed as stunting at 0.5 to 4 kg/ha after 16 days; assay type: functional, organism-based
[14] = test system: Agrostis stolonifera var. palustris; test: Herbicidal activity against Agrostis stolonifera var. palustris after 9 days by agarose-based test; assay type: functional
[15] = test system: Echinochloa crus-galli; test: Pre-emergence herbicidal activity against Echinochloa crus-galli (barnyard grass) assessed as stunting at 0.5 to 4 kg/ha after 16 days; assay type: functional, organism-based
[16] = test system: Ipomoea hederacea; test: Post-emergence herbicidal activity against Ipomoea hederacea (ivy-leaved morning glory) assessed as stunting at 0.5 to 4 kg/ha after 9 days; assay type: functional, organism-based
[17] = test system: Abutilon theophrasti; test: Herbicidal activity against Abutilon theophrasti (velvetleaf) assessed as visual injury at 1 ug/seedling applied to leaf after 1 week relative to control; assay type: functional
[18] = test system: Ipomoea hederacea; test: Herbicidal activity against Ipomoea hederacea (ivy-leaved morning glory) assessed as visual injury at 10 ug/seedling applied to cotyledon after 1 week relative to control; assay type: functional
[19] = test system: Ipomoea hederacea; test: Pre-emergence herbicidal activity against Ipomoea hederacea (ivy-leaved morning glory) assessed as visual injury at 1 kg/ha after 16 days relative to control; assay type: functional
[20] = test system: Echinochloa crus-galli; test: Post-emergence herbicidal activity against Echinochloa crus-galli (barnyard grass) assessed as visual injury at 1 kg/ha after 9 days relative to control; assay type: functional
[21] = test system: Echinochloa crus-galli; test: Post-emergence herbicidal activity against Echinochloa crus-galli (barnyard grass) assessed as meristematic at 0.5 to 4 kg/ha after 9 days; assay type: functional, organism-based
[22] = test system: Avena fatua; test: Post-emergence growth inhibition of Avena fatua assessed as stunting at 0.5 to 4 kg/ha after 9 days; assay type: functional, organism-based
[23] = test system: Abutilon theophrasti; test: Herbicidal activity against Abutilon theophrasti (velvetleaf) assessed as visual injury at 1 ug/seedling applied to meristem after 1 week relative to control; assay type: functional
[24] = test system: Lemna minor; test: Herbicidal activity against Lemna minor (common duckweed) assessed as visual injury at 1 ppm after 9 days relative to control; assay type: functional
[25] = test system: Avena fatua; test: Pre-emergence growth inhibition of Avena fatua assessed as visual injury at 1 kg/ha after 16 days relative to control; assay type: functional; design: scale not given: the % may be the effect or the level left
[26] = test system: Arabidopsis thaliana; test: Growth inhibition of Arabidopsis thaliana var. Columbia assessed as stunting after 9 days by agarose-based test; assay type: functional, organism-based
[27] = test system: Echinochloa crus-galli; test: Pre-emergence herbicidal activity against Echinochloa crus-galli (barnyard grass) assessed as visual injury at 1 kg/ha after 16 days relative to control; assay type: functional
[28] = test system: Agrostis stolonifera var. palustris; test: Herbicidal activity against Agrostis stolonifera var. palustris assessed as visual injury at 0.04 ppm after 9 days relative to control; assay type: functional
[29] = test system: Avena fatua; test: Pre-emergence growth inhibition of Avena fatua assessed as stunting at 0.5 to 4 kg/ha after 16 days; assay type: functional, organism-based
[30] = test system: Abutilon theophrasti; test: Herbicidal activity against Abutilon theophrasti (velvetleaf) assessed as visual injury at 100 ug/seedling applied to meristem after 1 week relative to control; assay type: functional
[31] = test system: Helianthus annuus; test: Pre-emergence growth inhibition of Helianthus annuus (sunflower) assessed as visual injury at 0.5 kg/ha after 16 days relative to control; assay type: functional; design: scale not given: the % may be the effect or the level left
[32] = test system: Helianthus annuus; test: Post-emergence growth inhibition of Helianthus annuus (sunflower) assessed as meristematic at 0.5 to 4 kg/ha after 9 days; assay type: functional, organism-based
[33] = test system: Helianthus annuus; test: Herbicidal activity against Helianthus annuus (sunflower) assessed as visual injury at 10 ug/seedling applied to meristem after 1 week relative to control; assay type: functional
[34] = test system: Avena fatua; test: Post-emergence growth inhibition of Avena fatua assessed as wilting at 0.5 to 4 kg/ha after 9 days; assay type: functional, organism-based
[35] = test system: Echinochloa crus-galli; test: Pre-emergence herbicidal activity against Echinochloa crus-galli (barnyard grass) assessed as meristematic at 0.5 to 4 kg/ha after 16 days; assay type: functional, organism-based
[36] = test system: Avena fatua; test: Pre-emergence growth inhibition of Avena fatua assessed as visual injury at 2 kg/ha after 16 days relative to control; assay type: functional; design: scale not given: the % may be the effect or the level left
[37] = test system: Avena fatua; test: Post-emergence growth inhibition of Avena fatua assessed as visual injury at 0.5 kg/ha after 9 days relative to control; assay type: functional; design: scale not given: the % may be the effect or the level left
[38] = test system: Agrostis stolonifera var. palustris; test: Herbicidal activity against Agrostis stolonifera var. palustris assessed as visual injury at 25 ppm after 9 days relative to control; assay type: functional
[39] = test system: Helianthus annuus; test: Post-emergence growth inhibition of Helianthus annuus (sunflower) assessed as visual injury at 1 kg/ha after 9 days relative to control; assay type: functional; design: scale not given: the % may be the effect or the level left
[40] = test system: Ipomoea hederacea; test: Post-emergence herbicidal activity against Ipomoea hederacea (ivy-leaved morning glory) assessed as visual injury at 1 kg/ha after 9 days relative to control; assay type: functional
[41] = test system: Helianthus annuus; test: Pre-emergence growth inhibition of Helianthus annuus (sunflower) assessed as visual injury at 1 kg/ha after 16 days relative to control; assay type: functional; design: scale not given: the % may be the effect or the level left
[42] = test system: Ipomoea hederacea; test: Post-emergence herbicidal activity against Ipomoea hederacea (ivy-leaved morning glory) after 9 days; assay type: functional
[43] = test system: Arabidopsis thaliana; test: Growth inhibition of Arabidopsis thaliana var. Columbia after 9 days by agarose-based test; assay type: functional
[44] = test system: Echinochloa crus-galli; test: Post-emergence herbicidal activity against Echinochloa crus-galli (barnyard grass) assessed as visual injury at 0.5 kg/ha after 9 days relative to control; assay type: functional
[45] = test system: Helianthus annuus; test: Post-emergence growth inhibition of Helianthus annuus (sunflower) assessed as wilting at 0.5 to 4 kg/ha after 9 days; assay type: functional, organism-based
[46] = test system: Helianthus annuus; test: Post-emergence growth inhibition of Helianthus annuus (sunflower) assessed as visual injury at 4 kg/ha after 9 days relative to control; assay type: functional; design: scale not given: the % may be the effect or the level left
[47] = test system: Avena fatua; test: Pre-emergence growth inhibition of Avena fatua assessed as visual injury at 4 kg/ha after 16 days relative to control; assay type: functional; design: scale not given: the % may be the effect or the level left
[48] = test system: Abutilon theophrasti; test: Herbicidal activity against Abutilon theophrasti (velvetleaf) assessed as visual injury at 100 ug/seedling applied to leaf after 1 week relative to control; assay type: functional

CN1C(=O)[C@](O)(Cc2cccc(O)c2)N(C)C(=O)[C@@H]1Cc1c[nH]c2cccc([N+](=O)[O-])c12 [THAXTOMIN A]
Activity [1]: 100%
Activity [2]: 0%
Activity [3]: 100%
Activity [4]: 95%
GR50 [5]: 12 ppb
Activity [6]: 100%
Activity [7]: 100%
Activity [8]: 0%
Activity [9]: 80%
Activity [10]: 50%
Activity [11]: 100%
Activity [12]: 80%
Activity [13]: Active
I50 [14]: 25 ppb
Activity [15]: Active
Activity [16]: Active
Activity [17]: 0%
Activity [18]: 0%
Activity [19]: 100%
Activity [20]: 20%
Activity [21]: Active
Activity [22]: Active
Activity [23]: 20%
Activity [24]: 100%
Activity [25]: 100%
growth inhibition (GI) [26]: Active
Activity [27]: 98%
Activity [28]: 80%
Activity [29]: Active
Activity [30]: 80%
Activity [31]: 70%
Activity [32]: Active
Activity [33]: 90%
Activity [34]: Active
Activity [35]: Active
Activity [36]: 100%
Activity [37]: 0%
Activity [38]: 100%
Activity [39]: 85%
Activity [40]: 80%
Activity [41]: 100%
GR50 [42]: <500 g/ha
I50 [43]: 10 ppb
Activity [44]: 10%
Activity [45]: Active
Activity [46]: 85%
Activity [47]: 100%
Activity [48]: 0%
